Measured values: ChEMBL document CHEMBL5724914, “Linking interpersonal differences in gut microbiota composition and drug biotransformation activity” (2024)

Assays:
[1] = human gut metagenome, 24 h, 2 µM
[2] = human gut metagenome, 24 h, 2 µM; remark: listed apart in the source
[3] = (§1) The drug is tested on WLS-090 corresponding to human gut metagenome with ENA study accession number: PRJEB37062 and ENA sample accession number: ERS12561753 for biotransformation under anaerobic condition. The drug concentrations were measured over 9 timepoints collected between 0 and 24 hours of incubation by liquid-chromatography-coupled mass spectrometry (LC–MS); conditions: 2 µM
[4] = as §1, with “Z-027” for “WLS-090”, “to” for “to human gut”, “ERS12561826” for “ERS12561753”; conditions: 2 µM
[5] = as §1, with “Z-005” for “WLS-090”, “to” for “to human gut”, “ERS12561805” for “ERS12561753”; conditions: 2 µM
[6] = as §1, with “WLS-027” for “WLS-090”, “ERS12561744” for “ERS12561753”; conditions: 2 µM
[7] = as §1, with “Z-025” for “WLS-090”, “rabbit” for “human”, “ERS12561824” for “ERS12561753”; conditions: 2 µM
[8] = human gut metagenome, 24 h, 2 µM; remark: listed apart in the source
[9] = as §1, with “Z-009” for “WLS-090”, “pig” for “human”, “ERS12561809” for “ERS12561753”; conditions: 2 µM
[10] = as §1, with “WLS-006” for “WLS-090”, “ERS12561741” for “ERS12561753”; conditions: 2 µM
[11] = human gut metagenome, 24 h, 2 µM; remark: listed apart in the source
[12] = as §1, with “Z-023” for “WLS-090”, “to” for “to human gut”, “ERS12561822” for “ERS12561753”; conditions: 2 µM
[13] = human gut metagenome, 24 h, 2 µM; remark: listed apart in the source
[14] = as §1, with “Z-029” for “WLS-090”, “rat” for “human”, “ERS12561828” for “ERS12561753”; conditions: 2 µM
[15] = human gut metagenome, 24 h, 2 µM; remark: listed apart in the source
[16] = as §1, with “Z-012” for “WLS-090”, “to” for “to human gut”, “ERS12561812” for “ERS12561753”; conditions: 2 µM
[17] = human gut metagenome, 24 h, 2 µM; remark: listed apart in the source
[18] = as §1, with “Z-002” for “WLS-090”, “rabbit” for “human”, “ERS12561802” for “ERS12561753”; conditions: 2 µM
[19] = human gut metagenome, 24 h, 2 µM; remark: listed apart in the source
[20] = human gut metagenome, 24 h, 2 µM; remark: listed apart in the source
Note: call rule not given here.

SMILES	Bacterial Biotransformation [1]	Bacterial Biotransformation [2]	Bacterial Biotransformation [3]	Bacterial Biotransformation [4]	Bacterial Biotransformation [5]	Bacterial Biotransformation [6]	Bacterial Biotransformation [7]	Bacterial Biotransformation [8]	Bacterial Biotransformation [9]	Bacterial Biotransformation [10]	Bacterial Biotransformation [11]	Bacterial Biotransformation [12]	Bacterial Biotransformation [13]	Bacterial Biotransformation [14]	Bacterial Biotransformation [15]	Bacterial Biotransformation [16]	Bacterial Biotransformation [17]	Bacterial Biotransformation [18]	Bacterial Biotransformation [19]	Bacterial Biotransformation [20]
O=C1NCC2(CCN(CCc3ccccc3)CC2)O1 [FENSPIRIDE]	Compound NOT metabolized	Compound NOT metabolized	Compound NOT metabolized	Compound NOT metabolized	Compound NOT metabolized	Compound NOT metabolized	Compound NOT metabolized	Compound NOT metabolized	Compound NOT metabolized	Compound NOT metabolized	Compound NOT metabolized	Compound NOT metabolized	Compound NOT metabolized	Compound NOT metabolized	Compound NOT metabolized	Compound NOT metabolized	Compound NOT metabolized	Compound metabolized	Compound NOT metabolized	Compound NOT metabolized
O=C(CCCN1CCC(O)(c2ccc(Cl)cc2)CC1)c1ccc(F)cc1 [HALOPERIDOL]	Compound NOT metabolized	Compound NOT metabolized	Compound metabolized	Compound NOT metabolized	Compound NOT metabolized	Compound metabolized	Compound NOT metabolized	Compound NOT metabolized	Compound metabolized	Compound metabolized	Compound NOT metabolized	Compound metabolized	Compound NOT metabolized	Compound NOT metabolized	Compound NOT metabolized	Compound NOT metabolized	Compound metabolized	Compound metabolized	Compound NOT metabolized	Compound metabolized
Cc1cn([C@H]2C[C@H](N=[N+]=[N-])[C@@H](CO)O2)c(=O)[nH]c1=O [ZIDOVUDINE]	Compound NOT metabolized	Compound NOT metabolized	Compound NOT metabolized	Compound metabolized	Compound NOT metabolized	Compound NOT metabolized	Compound metabolized	Compound NOT metabolized	Compound NOT metabolized	Compound metabolized	Compound NOT metabolized	Compound NOT metabolized	Compound NOT metabolized	Compound metabolized	Compound NOT metabolized	Compound metabolized	Compound NOT metabolized	Compound metabolized	Compound metabolized	Compound NOT metabolized
COc1cc2c(c(OC)c1OC)-c1ccc(OC)c(=O)cc1[C@@H](NC(C)=O)CC2 [COLCHICINE]	Compound metabolized	Compound metabolized	Compound NOT metabolized	Compound NOT metabolized	Compound metabolized	Compound NOT metabolized	Compound NOT metabolized	Compound NOT metabolized	Compound metabolized	Compound metabolized	Compound metabolized	Compound metabolized	Compound metabolized	Compound NOT metabolized	Compound metabolized	Compound NOT metabolized	Compound metabolized	Compound metabolized	Compound NOT metabolized	Compound metabolized
OC(Cn1cncn1)(Cn1cncn1)c1ccc(F)cc1F [FLUCONAZOLE]	Compound metabolized	Compound NOT metabolized	Compound metabolized	Compound NOT metabolized	Compound NOT metabolized	Compound metabolized	Compound NOT metabolized	Compound NOT metabolized	Compound NOT metabolized	Compound metabolized	Compound metabolized	Compound metabolized	Compound metabolized	Compound NOT metabolized	Compound NOT metabolized	Compound NOT metabolized	Compound metabolized	Compound metabolized	Compound NOT metabolized	Compound metabolized
CC(C(=O)O)c1ccc2c(c1)Cc1cccnc1O2 (stereo not given) [PRANOPROFEN]	Compound metabolized	Compound metabolized	Compound metabolized	Compound metabolized	Compound metabolized	Compound metabolized	Compound metabolized	Compound metabolized	Compound metabolized	Compound metabolized	Compound metabolized	Compound metabolized	Compound metabolized	Compound metabolized	Compound metabolized	Compound metabolized	Compound metabolized	Compound metabolized	Compound metabolized	Compound metabolized
COc1c2occc2cc2ccc(=O)oc12 [METHOXSALEN]	Compound metabolized	Compound metabolized	Compound metabolized	Compound metabolized	Compound metabolized	Compound metabolized	Compound metabolized	Compound NOT metabolized	Compound metabolized	Compound metabolized	Compound metabolized	Compound metabolized	Compound metabolized	Compound NOT metabolized	Compound metabolized	Compound metabolized	Compound metabolized	Compound metabolized	Compound metabolized	Compound metabolized
CCOc1ccc(NC(C)=O)cc1 [PHENACETIN]	Compound NOT metabolized	Compound NOT metabolized	Compound NOT metabolized	Compound NOT metabolized	Compound NOT metabolized	Compound NOT metabolized	Compound NOT metabolized	Compound NOT metabolized	Compound NOT metabolized	Compound NOT metabolized	Compound NOT metabolized	Compound NOT metabolized	Compound NOT metabolized	Compound NOT metabolized	Compound NOT metabolized	Compound NOT metabolized	Compound NOT metabolized	Compound NOT metabolized	Compound NOT metabolized	Compound NOT metabolized
